Measurements: patent US12319652B2, “Salts and solid forms of (R)-1-(5-methoxy-1H-indol-1-yl)-N,N-dimethylpropan-2-amine” (priority 2021, dated 2025)

Columns and labels:
[1] = Qualitative solubility screen of Compound 1 HCl; assay type: physicochemical
Procedure: The qualitative solubility screen was carried out to determine the range of solvents incorporated into future suspension equilibration panels.
Products that crystallized were centrifuged and analyzed as wet pellet by XRPD, dried under reduced pressure and re-analyzed by XRPD, with selected samples further analyzed by TGA and ^1H NMR spectroscopy.

[2] = Heat-up/cool down (HUCD) crystallization of compound 1 Fumarate in different solvents
Source text: Crystallisation from different solvents can be a useful method to investigate alternative polymorphic forms. This crystallisation screen of compound 1·Fumarate could also be used to identify potential conditions for future scale-up crystallisations to control the form outcome. Amorphous compound 1 fumarate (batch 1) was crystallised from several solvents (refer to Table 64). Only entries N1 AND N2 remained in solution when cooled down. The XRPD diffractograms of the rest, which delivered solids, matched monofumarate Form A when oven dried (FIG. 103).
Separate portions of compound 1 Fumarate (75 mg, 1.0 wt.) were charged to separate vessels. The appropriate solvents (750 μl) were charged to the relevant vessels and subsequent charges of the appropriate co-solvent were made to accomplish dissolution. The solutions were cooled to 18 to 23° C. and allowed to stand undisturbed, until crystallization was judged complete. After this time the products were isolated by centrifugation, washed with recycled maturation solvent, dried under reduced pressure at 40° C. and analyzed by XRPD for evidence of alternative crystalline forms (FIG. 103).

[3] = Ethanol/Water (15% v/v, 0.5 aw), 5 vol
[4] = Heptane (5 vol) + 2-Methyl THF 380 μl
[5] = Heptane (5 vol) + 2-Propanol 120 μl
[6] = Heptane (5 vol) + Acetone 200 μl
[7] = Heptane (5 vol) + Butanol 100 μl
[8] = Heptane (5 vol) + Dichloromethane 160 μl
[9] = Heptane (5 vol) + Diethyl ether 800 μl
[10] = Heptane (5 vol) + Dioxane 240 μl
[11] = Heptane (5 vol) + Ehtyl acetate 420 μl
[12] = Heptane (5 vol) + Ethanol 180 μl
[13] = Heptane (5 vol) + Isopropyl acetate 660 μl
[14] = Heptane (5 vol) + Methylethyl ketone 100 μl
[15] = Heptane (5 vol) + Tetrahydrofuran 300 μl
[16] = no precipitant solvent (—), Toluene 800 μl

SMILES: COc1ccc2c(ccn2C[C@@H](C)N(C)C)c1.Cl [Compound 1 HCl]
- XRPD (dried pellet) ([1]; 2-Propanol): Form A
- XRPD (moist pellet) ([1]; 2-Propanol): Paste
- Solid on cooling? ([1]; 2-Propanol, 10 vol): ✓
- Solution at reflux ([1]; 2-Propanol, 10 vol): ✓
- Solution at reflux ([1]; 2-Propanol, 15 vol): ✓
- XRPD (dried pellet) ([1]; Acetone): Form A
- XRPD (moist pellet) ([1]; Acetone): Form A
- XRPD (moist pellet) ([1]; Acetone/Water (5% v/v, 0.5 aw)): Solution
- Solid on cooling ([1]; Acetone/Water (5% v/v, 0.5 aw), 5 vol): ✓
- Solution at reflux ([1]; Acetone/Water (5% v/v, 0.5 aw), 10 vol): ✓
- XRPD (dried pellet) ([1]; Chlorobenzene): Form A
- XRPD (moist pellet) ([1]; Chlorobenzene): Paste
- XRPD (moist pellet) ([1]; DCM): Form A
- XRPD (moist pellet) ([1]; EtOAc): Form A
- XRPD (dried pellet) ([1]; EtOH): Form A
- XRPD (moist pellet) ([1]; EtOH): Form A
- Solid on cooling ([1]; EtOH, 15 vol): ✓
- Solid on cooling ([1]; EtOH, 20 vol): ✓
- XRPD (moist pellet) ([1]; Ethanol/Water (15% v/v, 0.5 aw)): Solution
- Solid on cooling [1, 3]: ✓
- Solution at reflux [1, 3]: ✓
- Solution at 20° C. ([1]; Ethanol/Water (15% v/v, 0.5 aw), 10 vol): ✓
- XRPD (moist pellet) ([1]; Ethyl formate): Form A
- XRPD (moist pellet) ([1]; Heptane): Form A
- XRPD (moist pellet) ([1]; Isopropanol/Water (12%, v/v, 0.5 aw)): Solution
- Solid on cooling ([1]; Isopropanol/Water (12%, v/v, 0.5 aw), 5 vol): ✓
- Solution at reflux ([1]; Isopropanol/Water (12%, v/v, 0.5 aw), 10 vol): ✓
- XRPD (dried pellet) ([1]; MEK): Form A
- XRPD (moist pellet) ([1]; MEK): Paste
- XRPD (moist pellet) ([1]; MeCN): Form A
- Solid on cooling ([1]; MeCN, 15 vol): ✓
- Solid on cooling ([1]; MeCN, 20 vol): ✓
- XRPD (moist pellet) ([1]; MeOH): Solution
- Solution at reflux ([1]; MeOH, 10 vol): ✓
- XRPD (dried pellet) ([1]; MeTHF): Form A
- XRPD (moist pellet) ([1]; MeTHF): Paste
- XRPD (dried pellet) ([1]; Methyl acetate): Form A
- XRPD (moist pellet) ([1]; Methyl acetate): Paste
- XRPD (dried pellet) ([1]; Nitromethane): Form A
- XRPD (moist pellet) ([1]; Nitromethane): Paste
- Solid on cooling? ([1]; Nitromethane, 10 vol): ✓
- Solution at 40° C. ([1]; Nitromethane, 15 vol): ✓
- Solution at reflux ([1]; Nitromethane, 15 vol): ✓
- XRPD (moist pellet) ([1]; TBME): Form A
- XRPD (dried pellet) ([1]; Toluene): Form A
- XRPD (moist pellet) ([1]; Toluene): Paste
- XRPD (moist pellet) ([1]; Water): Solution
- Solution at 20° C. ([1]; Water, 5 vol): ✓
- Qualitative solubility ([1]; polar and aqueous solvents at temperature, panel of 22 solvents): soluble
- Qualitative solubility ([1]; polar solvents and solvents with high water activity): readily soluble

SMILES: COc1ccc2c(ccn2C[C@@H](C)[NH+](C)C)c1.O=C(O)/C=C/C(=O)O [Compound 1 fumarate, (R)-1-(5-methoxy-1H-indol-1-yl)-N,N-dimethylpropan-2-amine fumarate]
- Form XRPD (oven dried) [2, 4]: Pattern 1
- Observations (t = 0 @ T = 20° C.) [2, 4]: suspension
- Observations (t = 3 d @ 20° C.) [2, 4]: suspension
- Form XRPD (oven dried) [2, 5]: Pattern 1
- Observations (t = 0 @ T = 20° C.) [2, 5]: suspension
- Observations (t = 3 d @ 20° C.) [2, 5]: suspension
- Form XRPD (oven dried) [2, 6]: Pattern 1
- Observations (t = 0 @ T = 20° C.) [2, 6]: suspension
- Observations (t = 3 d @ 20° C.) [2, 6]: suspension
- Form XRPD (oven dried) [2, 7]: Pattern 1
- Observations (t = 0 @ T = 20° C.) [2, 7]: suspension
- Observations (t = 3 d @ 20° C.) [2, 7]: suspension
- Form XRPD (oven dried) ([2]; Heptane (5 vol) + CPME 800 μl): Pattern 1
- Observations (t = 0 @ T = 20° C.) ([2]; Heptane (5 vol) + CPME 800 μl): gum
- Observations (t = 3 d @ 20° C.) ([2]; Heptane (5 vol) + CPME 800 μl): gum
- Observations (t = 0 @ T = 20° C.) [2, 8]: suspension
- Observations (t = 3 d @ 20° C.) [2, 8]: suspension
- Form XRPD (oven dried) [2, 9]: Pattern 1
- Observations (t = 0 @ T = 20° C.) [2, 9]: gum
- Observations (t = 3 d @ 20° C.) [2, 9]: gum
- Observations (t = 0 @ T = 20° C.) [2, 10]: suspension
- Observations (t = 3 d @ 20° C.) [2, 10]: suspension
- Form XRPD (oven dried) [2, 11]: Pattern 1
- Observations (t = 0 @ T = 20° C.) [2, 11]: suspension
- Observations (t = 3 d @ 20° C.) [2, 11]: suspension
- Form XRPD (oven dried) [2, 12]: Pattern 1
- Observations (t = 0 @ T = 20° C.) [2, 12]: suspension
- Form XRPD (oven dried) [2, 13]: Pattern 1
- Observations (t = 0 @ T = 20° C.) [2, 13]: suspension
- Observations (t = 3 d @ 20° C.) [2, 13]: suspension
- Form XRPD (oven dried) ([2]; Heptane (5 vol) + MIBK 420 μl): Pattern 1
- Observations (t = 0 @ T = 20° C.) ([2]; Heptane (5 vol) + MIBK 420 μl): suspension
- Observations (t = 3 d @ 20° C.) ([2]; Heptane (5 vol) + MIBK 420 μl): suspension
- Form XRPD (oven dried) [2, 14]: Pattern 1
- Observations (t = 3 d @ 20° C.) [2, 14]: suspension
- Form XRPD (oven dried) [2, 15]: Pattern 1
- Observations (t = 0 @ T = 20° C.) [2, 15]: suspension
- Observations (t = 3 d @ 20° C.) [2, 15]: suspension
- Observations (t = 0 @ T = 20° C.) ([2]; Water (5 vol) + Ethanol 80 μl): solution
- Form XRPD (oven dried) [2, 16]: Pattern 1
- Observations (t = 0 @ T = 20° C.) [2, 16]: gum
- Observations (t = 3 d @ 20° C.) [2, 16]: gum
